# Patent US20070219243A1, “Method for improving the pharmacokinetics of HIV integrase inhibitors” (priority 2005, published 2007)
# Conditions: human, in vivo
# Experimental: Safety, tolerability, pharmacokinetics, and efficacy were monitored through Day 21 after dosing. The active treatments in the 5 cohorts were as follows: […] The duration of the study was 21 days, with 10 days of treatment and 11 days of follow-up. […] Matching placebo was administered orally under fed conditions. For Cohort 5 only, 100 mg RTV capsules were coadministered orally under fed conditions. […] Pharmacokinetics: The pharmacokinetic parameters of Compound 1 in plasma and peripheral blood mononuclear cells were summarized using descriptive statistics.
structure (smiles),measurement,value
"COc1cc2c(cc1Cc1cccc(Cl)c1F)c(=O)c(C(=O)O)cn2[C@H](CO)C(C)C [Compound 1, 6-(3-chloro-2-fluorobenzyl)-1-[(2S)-1-hydroxy-3-methylbutan-2-yl]-7-methoxy-4-oxo-1,4-dihydroquinoline-3-carboxylic acid]",Dose proportionality of pharmacokinetics,did not exhibit dose-proportional increases
